Test results as given in ChEMBL document CHEMBL1142912, “Novel piperazines: potent melanocortin-4 receptor antagonists with anxiolytic-like activity” (Bioorg Med Chem, 2007).
Calls of active or inactive are those of the source. No cut-off for these calls is given here.

Key:
Melanocortin receptor 4 = Melanocortin receptor 4 (Homo sapiens, UniProt P32245); assay: Displacement of [125I][Nle4,D-Phe7]alphaMSH from human MC4R expressed in COS7 cells; type: cell-based, COS-7
[1] = biological target: Sodium-dependent serotonin transporter (Rattus norvegicus, UniProt P31652); assay: Displacement of [3H]paroxetine from serotonin transporter in rat cortical membrane; type: cell membranes
Sodium-dependent serotonin transporter, sequence (P31652 whole entry): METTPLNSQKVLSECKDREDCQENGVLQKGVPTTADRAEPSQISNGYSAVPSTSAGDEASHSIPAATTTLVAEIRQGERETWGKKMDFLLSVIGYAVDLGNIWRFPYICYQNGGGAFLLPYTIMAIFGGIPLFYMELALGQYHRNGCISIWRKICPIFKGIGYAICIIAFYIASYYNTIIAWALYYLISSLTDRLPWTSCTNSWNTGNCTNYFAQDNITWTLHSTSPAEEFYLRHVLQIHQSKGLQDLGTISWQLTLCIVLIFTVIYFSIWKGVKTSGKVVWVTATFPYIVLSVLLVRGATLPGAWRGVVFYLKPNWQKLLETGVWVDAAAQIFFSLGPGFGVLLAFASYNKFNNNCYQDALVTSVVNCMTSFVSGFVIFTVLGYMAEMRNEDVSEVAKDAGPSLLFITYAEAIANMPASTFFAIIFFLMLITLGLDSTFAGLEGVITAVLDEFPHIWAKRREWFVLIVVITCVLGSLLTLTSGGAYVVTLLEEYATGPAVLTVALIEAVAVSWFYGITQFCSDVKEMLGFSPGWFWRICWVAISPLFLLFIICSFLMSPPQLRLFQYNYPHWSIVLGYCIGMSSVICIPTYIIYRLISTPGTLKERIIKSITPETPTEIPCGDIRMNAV

[2] = biological target: Delta-type opioid receptor (Rattus norvegicus, UniProt P33533); assay: Displacement of [3H]DPDPE from delta opioid receptor in rat brain membrane; type: cell membranes
Delta-type opioid receptor, sequence (P33533 whole entry): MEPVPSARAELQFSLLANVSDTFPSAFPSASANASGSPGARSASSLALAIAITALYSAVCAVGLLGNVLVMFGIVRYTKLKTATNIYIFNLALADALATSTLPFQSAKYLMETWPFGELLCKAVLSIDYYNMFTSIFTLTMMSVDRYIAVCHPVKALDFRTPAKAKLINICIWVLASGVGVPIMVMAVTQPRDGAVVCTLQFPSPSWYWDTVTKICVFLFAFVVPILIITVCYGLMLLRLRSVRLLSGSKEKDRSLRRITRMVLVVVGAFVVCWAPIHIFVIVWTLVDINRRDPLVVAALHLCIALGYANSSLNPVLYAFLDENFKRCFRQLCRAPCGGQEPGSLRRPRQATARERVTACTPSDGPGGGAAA

[3] = biological target: T1, Adrenergic receptor alpha-1 (Rattus norvegicus, UniProt P15823+P23944+P43140); assay: Displacement of [3H]prazosin from Adrenergic alpha-1 receptor in rat cortical membrane; type: cell membranes
T1 sequence (P15823 whole entry): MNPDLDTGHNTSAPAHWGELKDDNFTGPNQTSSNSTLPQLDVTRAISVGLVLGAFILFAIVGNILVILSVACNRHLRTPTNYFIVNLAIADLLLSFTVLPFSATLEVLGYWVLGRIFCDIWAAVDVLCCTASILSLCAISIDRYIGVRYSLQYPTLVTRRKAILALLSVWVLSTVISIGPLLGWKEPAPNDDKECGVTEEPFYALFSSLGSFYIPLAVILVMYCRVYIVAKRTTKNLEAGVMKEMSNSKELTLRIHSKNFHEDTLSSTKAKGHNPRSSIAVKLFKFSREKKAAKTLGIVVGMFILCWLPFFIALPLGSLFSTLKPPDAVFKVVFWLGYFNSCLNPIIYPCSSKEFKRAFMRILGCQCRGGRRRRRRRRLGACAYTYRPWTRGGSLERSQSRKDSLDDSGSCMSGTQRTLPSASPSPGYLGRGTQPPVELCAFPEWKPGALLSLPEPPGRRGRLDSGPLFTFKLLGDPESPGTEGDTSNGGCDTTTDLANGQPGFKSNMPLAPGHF
T1 sequence (P23944 whole entry): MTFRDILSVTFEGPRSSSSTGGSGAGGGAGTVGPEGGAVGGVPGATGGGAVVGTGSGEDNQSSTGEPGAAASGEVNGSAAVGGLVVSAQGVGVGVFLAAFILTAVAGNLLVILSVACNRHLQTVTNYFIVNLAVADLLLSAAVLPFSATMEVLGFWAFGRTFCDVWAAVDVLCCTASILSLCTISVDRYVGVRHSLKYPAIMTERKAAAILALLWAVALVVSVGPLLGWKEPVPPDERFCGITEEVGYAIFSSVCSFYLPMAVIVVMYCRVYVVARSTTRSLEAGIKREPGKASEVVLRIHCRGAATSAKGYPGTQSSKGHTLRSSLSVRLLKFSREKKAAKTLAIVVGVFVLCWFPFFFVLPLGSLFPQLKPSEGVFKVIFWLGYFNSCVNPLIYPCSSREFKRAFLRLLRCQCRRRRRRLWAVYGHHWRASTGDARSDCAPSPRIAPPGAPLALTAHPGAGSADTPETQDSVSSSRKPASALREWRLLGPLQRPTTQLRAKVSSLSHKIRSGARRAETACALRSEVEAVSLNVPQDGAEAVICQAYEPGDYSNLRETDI
T1 sequence (P43140 whole entry): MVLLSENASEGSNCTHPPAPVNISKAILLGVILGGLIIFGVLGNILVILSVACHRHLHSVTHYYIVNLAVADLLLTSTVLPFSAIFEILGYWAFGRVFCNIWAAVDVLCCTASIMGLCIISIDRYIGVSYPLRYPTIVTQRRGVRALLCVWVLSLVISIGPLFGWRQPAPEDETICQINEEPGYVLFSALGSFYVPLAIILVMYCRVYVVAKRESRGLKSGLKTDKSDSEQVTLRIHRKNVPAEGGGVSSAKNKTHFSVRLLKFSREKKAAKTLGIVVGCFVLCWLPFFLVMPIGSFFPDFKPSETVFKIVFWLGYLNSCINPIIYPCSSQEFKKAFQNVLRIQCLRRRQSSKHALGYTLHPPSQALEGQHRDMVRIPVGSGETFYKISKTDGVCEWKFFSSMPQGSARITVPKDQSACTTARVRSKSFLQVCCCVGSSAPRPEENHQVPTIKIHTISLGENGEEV

[4] = biological target: Norepinephrine transporter (Rattus norvegicus, UniProt Q9WTR4); assay: Displacement of [3H]nisoxetine from NET in rat cortical membrane; type: cell membranes
Norepinephrine transporter, sequence (Q9WTR4 whole entry): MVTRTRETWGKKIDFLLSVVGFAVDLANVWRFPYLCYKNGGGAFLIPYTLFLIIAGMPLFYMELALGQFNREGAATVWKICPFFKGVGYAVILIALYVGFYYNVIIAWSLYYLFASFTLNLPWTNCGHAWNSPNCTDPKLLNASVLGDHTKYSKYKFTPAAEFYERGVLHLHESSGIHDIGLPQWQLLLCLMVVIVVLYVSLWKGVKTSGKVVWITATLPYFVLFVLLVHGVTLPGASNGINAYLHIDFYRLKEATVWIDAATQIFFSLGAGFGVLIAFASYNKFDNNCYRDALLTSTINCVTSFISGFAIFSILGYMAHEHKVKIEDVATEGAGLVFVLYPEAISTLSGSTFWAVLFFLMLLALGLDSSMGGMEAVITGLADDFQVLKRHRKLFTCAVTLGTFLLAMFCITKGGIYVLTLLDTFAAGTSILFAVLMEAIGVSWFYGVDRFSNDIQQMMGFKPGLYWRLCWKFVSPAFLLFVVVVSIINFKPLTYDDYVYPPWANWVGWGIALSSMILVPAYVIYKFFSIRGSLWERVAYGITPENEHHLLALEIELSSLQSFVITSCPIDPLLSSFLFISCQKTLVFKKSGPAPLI

D(2) dopamine receptor = D(2) dopamine receptor (Rattus norvegicus, UniProt P61169); assay: Displacement of [3H]raclopride from dopamine receptor D2 in rat striatal membrane; type: cell membranes, Striatum
D(2) dopamine receptor, sequence (P61169 whole entry): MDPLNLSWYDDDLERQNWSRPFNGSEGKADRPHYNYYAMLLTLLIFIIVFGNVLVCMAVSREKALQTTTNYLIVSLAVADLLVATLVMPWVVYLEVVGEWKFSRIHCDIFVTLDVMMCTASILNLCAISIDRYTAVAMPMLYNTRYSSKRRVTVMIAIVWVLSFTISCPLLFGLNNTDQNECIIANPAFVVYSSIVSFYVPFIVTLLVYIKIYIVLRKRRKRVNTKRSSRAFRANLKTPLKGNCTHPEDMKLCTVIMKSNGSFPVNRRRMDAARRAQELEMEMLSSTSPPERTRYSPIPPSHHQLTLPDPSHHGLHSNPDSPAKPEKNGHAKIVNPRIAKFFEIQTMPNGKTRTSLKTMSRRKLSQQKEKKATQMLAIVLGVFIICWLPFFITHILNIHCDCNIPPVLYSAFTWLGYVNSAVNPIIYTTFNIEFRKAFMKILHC

Histamine H1 receptor = Histamine H1 receptor (Rattus norvegicus, UniProt P31390); assay: Displacement of [3H]pyrilamine from histamine H1 receptor in rat brain membrane; type: cell membranes
Histamine H1 receptor, sequence (P31390 whole entry): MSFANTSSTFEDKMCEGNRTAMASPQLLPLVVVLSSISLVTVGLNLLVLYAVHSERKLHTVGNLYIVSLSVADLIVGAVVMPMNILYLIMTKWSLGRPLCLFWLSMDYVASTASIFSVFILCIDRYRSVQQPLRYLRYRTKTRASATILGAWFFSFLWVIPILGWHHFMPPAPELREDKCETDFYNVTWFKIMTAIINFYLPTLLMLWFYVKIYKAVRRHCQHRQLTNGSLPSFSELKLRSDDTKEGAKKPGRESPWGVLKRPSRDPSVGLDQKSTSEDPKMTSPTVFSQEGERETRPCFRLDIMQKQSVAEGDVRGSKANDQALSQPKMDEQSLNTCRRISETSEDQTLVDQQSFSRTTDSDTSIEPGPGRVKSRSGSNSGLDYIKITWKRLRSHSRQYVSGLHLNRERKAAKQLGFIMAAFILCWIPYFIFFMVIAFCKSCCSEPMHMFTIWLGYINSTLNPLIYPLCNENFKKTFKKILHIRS

Mu-type opioid receptor = Mu-type opioid receptor (Rattus norvegicus, UniProt P33535); assay: Displacement of [3H]DAMGO from mu opioid receptor in rat brain membrane; type: cell membranes
Mu-type opioid receptor, sequence (P33535 whole entry): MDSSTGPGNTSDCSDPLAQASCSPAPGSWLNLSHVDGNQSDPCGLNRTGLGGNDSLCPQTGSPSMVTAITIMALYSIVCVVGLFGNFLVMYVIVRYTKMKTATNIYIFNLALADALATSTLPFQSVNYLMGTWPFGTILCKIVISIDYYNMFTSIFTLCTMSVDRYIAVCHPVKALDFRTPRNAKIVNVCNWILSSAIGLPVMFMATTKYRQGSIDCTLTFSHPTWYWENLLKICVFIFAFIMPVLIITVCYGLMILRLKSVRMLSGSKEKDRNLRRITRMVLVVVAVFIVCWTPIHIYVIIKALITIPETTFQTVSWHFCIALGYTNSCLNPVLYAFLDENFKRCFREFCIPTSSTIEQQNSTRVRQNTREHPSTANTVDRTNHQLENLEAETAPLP

Rattus norvegicus = assay: Reversal of stress-induced anxiety-like behavior in Sprague-Dawley rat at 1 mg/kg, po; type: functional, organism-based; design: dose 1 mg/kg

Melanocortin receptor 4, sequence (P32245 whole entry): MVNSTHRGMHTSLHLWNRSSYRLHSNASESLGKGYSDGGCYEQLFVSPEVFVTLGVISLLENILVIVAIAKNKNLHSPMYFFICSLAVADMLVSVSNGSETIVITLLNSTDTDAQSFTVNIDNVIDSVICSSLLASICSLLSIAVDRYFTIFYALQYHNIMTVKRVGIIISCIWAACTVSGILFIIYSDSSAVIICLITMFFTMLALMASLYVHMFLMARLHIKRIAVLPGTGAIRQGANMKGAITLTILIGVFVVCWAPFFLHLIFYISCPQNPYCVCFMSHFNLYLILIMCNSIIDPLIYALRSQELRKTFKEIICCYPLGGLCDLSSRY

Compound: CC(C)N1CCC(C(CN2CCN(CCCc3cc(F)ccc3-c3ccccc3)CC2)c2ccc(F)cc2)CC1 (racemic)
- IC50 (Melanocortin receptor 4): 52.2 nM

Compound: CC(C)N1CCC(C(CN2CCN(CCCc3ccccc3-c3ccccc3F)CC2)c2ccc(F)cc2)CC1 (racemic)
- IC50 (Melanocortin receptor 4): 98.6 nM

Compound: COc1ccc2ccccc2c1CCCCN1CCN(CC(c2ccc(F)cc2)C2CCN(C(C)C)CC2)CC1.Cl (racemic)
- IC50 [1]: 877 nM
- IC50 [2]: > 10000 nM
- IC50 [3]: > 1000 nM
- IC50 [4]: 2830 nM
- IC50 (D(2) dopamine receptor): > 1000 nM
- IC50 (Histamine H1 receptor): > 1000 nM
- IC50 (Melanocortin receptor 4): 40.3 nM
- IC50 (Mu-type opioid receptor): > 10000 nM

Compound: CN1CCC(C(CN2CCN(CCCCc3cccc4ccccc34)CC2)c2ccc(F)cc2)CC1 (racemic)
- IC50 (Melanocortin receptor 4): 333 nM

Compound: CC(C)N1CCC(C(CN2CCN(CCCc3ccc(F)cc3-c3ccccc3)CC2)c2ccc(F)cc2)CC1 (racemic)
- IC50 (Melanocortin receptor 4): 52.7 nM

Compound: CC(C)N1CCC(C(CN2CCN(CCCc3c(F)cccc3-c3ccccc3)CC2)c2ccc(F)cc2)CC1.Cl (racemic)
- IC50 [1]: 723 nM
- IC50 [2]: > 10000 nM
- IC50 [3]: > 1000 nM
- IC50 [4]: 491 nM
- IC50 (D(2) dopamine receptor): > 1000 nM
- IC50 (Histamine H1 receptor): > 1000 nM
- IC50 (Melanocortin receptor 4): 18.3 nM
- IC50 (Mu-type opioid receptor): > 10000 nM

Compound: CC(C)N1CCC(C(CN2CCN(CCCc3cccc(F)c3-c3ccccc3)CC2)c2ccc(F)cc2)CC1.Cl (racemic)
- IC50 [1]: 3130 nM
- IC50 [2]: > 10000 nM
- IC50 [3]: > 1000 nM
- IC50 [4]: 3940 nM
- IC50 (D(2) dopamine receptor): 482 nM
- Activity (Rattus norvegicus): Active
- IC50 (Histamine H1 receptor): > 1000 nM
- IC50 (Melanocortin receptor 4): 19.8 nM
- IC50 (Mu-type opioid receptor): > 10000 nM

Compound: CC(C)N1CCC(C(CN2CCN(CCCc3ccccc3-c3ccc(F)cc3)CC2)c2ccc(F)cc2)CC1.Cl (racemic)
- IC50 [1]: 3940 nM
- IC50 [2]: > 10000 nM
- IC50 [3]: > 1000 nM
- IC50 [4]: 729 nM
- IC50 (D(2) dopamine receptor): 820 nM
- IC50 (Histamine H1 receptor): > 1000 nM
- IC50 (Melanocortin receptor 4): 14.5 nM
- IC50 (Mu-type opioid receptor): > 10000 nM

Compound: CC(C)N1CCC(C(CN2CCN(CCCc3ccccc3-c3ccccc3)CC2)c2ccc(F)cc2)CC1.Cl (racemic)
- IC50 [1]: 953 nM
- IC50 [2]: > 10000 nM
- IC50 [3]: > 1000 nM
- IC50 [4]: 1180 nM
- IC50 (D(2) dopamine receptor): 423 nM
- Activity (Rattus norvegicus): Active
- IC50 (Histamine H1 receptor): > 1000 nM
- IC50 (Melanocortin receptor 4): 19.7 nM
- IC50 (Mu-type opioid receptor): > 10000 nM

Compound: CC(C)N1CCC(C(CN2CCN(CCCc3ccccc3-c3cccc(F)c3)CC2)c2ccc(F)cc2)CC1.Cl (racemic)
- IC50 [1]: 2140 nM
- IC50 [2]: > 10000 nM
- IC50 [3]: > 1000 nM
- IC50 [4]: 543 nM
- IC50 (D(2) dopamine receptor): 805 nM
- IC50 (Histamine H1 receptor): > 1000 nM
- IC50 (Melanocortin receptor 4): 23.4 nM
- IC50 (Mu-type opioid receptor): > 10000 nM
